In patent US20160375006A1, “USES OF PARALOG-SELECTIVE INHIBITORS OF GSK3 KINASES” (priority 2012, published 2016):

Experiments:
CHK2 = CHK2 (Homo sapiens, UniProt O96017)
Description: (§1) This was completed utilizing one of two assays depending on the kinase being examined.
(§2) A solution of IMAP binding reagent (IMAP Screening Express kit; Molecular Devices) (60 μL) was added to each well and incubated for 30 minutes.
(§3) A solution of termination buffer (QuickScout Screening assist MSA; Carna Biosciences) (60 μL) was added to each well. The entire reaction mixture was then applied to a LabChip3000 system (Caliper Life Science) and the product and substrate peptide peaks were separated and quantified.
(§4) The assay utilized was identical to that of the single point inhibitory activity determination (MSA) but run in dose response. […] A solution of termination buffer (QuickScout Screening assist MSA; Carna Biosciences) (60 μL) was added to each well. The entire reaction mixture was then applied to a LabChip3000 system (Caliper Life Science) and the product and substrate peptide peaks were separated and quantified.

PLK2 = PLK2 (Homo sapiens, UniProt Q9NYY3)
Description: as §1, §2, §3, §4

MST2 = MST2 (Homo sapiens, UniProt Q13188)
Description: as §1, §2, §3

PHKG2 = PHKG2 (Homo sapiens, UniProt P15735)
Description: as §1, §2, §3

QIK = QIK (Homo sapiens, UniProt Q9H0K1)
Description: as §1, §2, §3, §4

MARK2 = MARK2 (Homo sapiens, UniProt Q7KZI7)
Description: as §1, §2, §3, §4

FGFR4 = FGFR4 (Homo sapiens, UniProt P22455)
Description: as §1, §2, §3

EPHA1 = EPHA1 (Homo sapiens, UniProt P21709)
Description: as §2, §3, §4

NEK9 = NEK9 (Homo sapiens, UniProt Q8TD19)
NEK9, sequence (Q8TD19 whole entry): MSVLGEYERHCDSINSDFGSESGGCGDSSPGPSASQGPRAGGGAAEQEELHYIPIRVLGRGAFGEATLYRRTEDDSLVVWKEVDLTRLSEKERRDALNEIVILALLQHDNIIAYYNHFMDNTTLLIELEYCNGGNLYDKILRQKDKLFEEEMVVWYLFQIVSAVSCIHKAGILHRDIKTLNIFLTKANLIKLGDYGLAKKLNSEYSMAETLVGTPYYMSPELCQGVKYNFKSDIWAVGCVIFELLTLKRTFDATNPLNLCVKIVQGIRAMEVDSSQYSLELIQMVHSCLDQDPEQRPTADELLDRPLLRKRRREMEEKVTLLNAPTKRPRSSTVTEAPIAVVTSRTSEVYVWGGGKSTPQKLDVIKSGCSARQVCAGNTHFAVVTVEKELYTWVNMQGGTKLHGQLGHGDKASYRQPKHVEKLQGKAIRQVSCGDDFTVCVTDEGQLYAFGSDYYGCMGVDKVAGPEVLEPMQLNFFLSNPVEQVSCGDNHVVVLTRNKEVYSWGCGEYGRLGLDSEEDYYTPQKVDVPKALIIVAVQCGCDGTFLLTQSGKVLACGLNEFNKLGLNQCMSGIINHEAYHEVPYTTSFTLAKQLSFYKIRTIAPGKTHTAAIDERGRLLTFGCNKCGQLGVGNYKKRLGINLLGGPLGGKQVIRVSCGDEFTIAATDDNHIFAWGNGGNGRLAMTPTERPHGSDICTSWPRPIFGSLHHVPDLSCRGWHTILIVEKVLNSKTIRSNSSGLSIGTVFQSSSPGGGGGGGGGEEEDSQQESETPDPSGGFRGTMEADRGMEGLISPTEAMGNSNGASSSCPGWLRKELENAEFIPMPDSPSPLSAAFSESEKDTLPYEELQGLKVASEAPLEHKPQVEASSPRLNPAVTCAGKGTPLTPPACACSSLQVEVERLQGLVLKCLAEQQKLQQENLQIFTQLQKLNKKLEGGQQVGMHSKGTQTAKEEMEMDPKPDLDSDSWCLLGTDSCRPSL
Description: as §1, §2, §3, §4

SPHK1 = SPHK1 (Homo sapiens, UniProt Q9NYA1)
Description: as §1, §2, §3, §4

YES = YES (Homo sapiens, UniProt P07947)
Description: as §1, §2, §3

PKACγ = PKACγ (Homo sapiens, UniProt P22612)
Description: as §1, §2, §3, §4

PASK = PASK (Homo sapiens, UniProt Q96RG2)
Description: as §1, §2, §3, §4

p70S6K = p70S6K (Homo sapiens, UniProt P23443)
Description: as §1, §2, §3, §4

MAP2K7_Cascade = MAP2K7_Cascade (Homo sapiens, UniProt O14733)
Description: as §1, §2, §3, §4

MST1 = MST1 (Homo sapiens, UniProt Q13043)
Description: as §1, §2, §3, §4

IRR = IRR (Homo sapiens, UniProt P14616)
Description: as §1, §2, §3, §4

MAPKAPK5 = MAPKAPK5 (Homo sapiens, UniProt Q8IW41)
Description: as §1, §2, §3, §4

EGFR(d746-750/T790M) = EGFR(d746-750/T790M) (Homo sapiens, UniProt P00533, DEL746-750/T790M)
Description: as §1, §2, §3, §4

MLK2_Cascade = MLK2_Cascade (Homo sapiens, UniProt Q02779)
Description: as §1, §2, §3, §4

CLK3 = CLK3 (Homo sapiens, UniProt P49761)
HIPK3 = HIPK3 (Homo sapiens, UniProt Q9H422)
Description: as §1, §2, §3, §4

MAP3K1_Cascade = MAP3K1_Cascade (Homo sapiens, UniProt Q13233)
Description: as §1, §2, §3, §4

LYNb = LYNb (Homo sapiens, UniProt P07948)
LYNb, sequence (P07948 1-491 isoform P07948-2): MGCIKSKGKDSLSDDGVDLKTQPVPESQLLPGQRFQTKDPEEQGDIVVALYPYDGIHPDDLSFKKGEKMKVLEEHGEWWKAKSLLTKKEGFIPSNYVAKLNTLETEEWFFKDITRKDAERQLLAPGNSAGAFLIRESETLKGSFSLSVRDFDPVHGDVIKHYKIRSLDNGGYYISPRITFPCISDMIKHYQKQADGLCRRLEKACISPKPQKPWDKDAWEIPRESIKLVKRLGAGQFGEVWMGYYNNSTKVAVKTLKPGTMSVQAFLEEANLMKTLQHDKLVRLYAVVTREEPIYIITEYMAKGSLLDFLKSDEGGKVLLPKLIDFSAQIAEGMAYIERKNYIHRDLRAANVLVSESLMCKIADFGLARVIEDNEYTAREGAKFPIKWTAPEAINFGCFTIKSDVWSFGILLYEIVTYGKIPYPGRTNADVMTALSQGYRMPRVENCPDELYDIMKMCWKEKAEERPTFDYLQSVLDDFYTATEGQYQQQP
Description: as §1, §2, §3, §4

CLK1 = CLK1 (Homo sapiens, UniProt P49759); test: Carna kinase panel; format: biochemical
Description: as §1, §2, §3

ALK = ALK (Homo sapiens, UniProt Q9UM73)
Description: as §1, §2, §3

SGK2 = SGK2 (Homo sapiens, UniProt Q9HBY8)
Description: as §1, §2, §3, §4

Haspin = Haspin (Homo sapiens, UniProt Q8TF76)
Description: as §1, §2, §3, §4

MNK2 = MNK2 (Homo sapiens, UniProt Q9HBH9)
Description: as §1, §2, §3

BRAF_Cascade = BRAF_Cascade (Homo sapiens, UniProt P15056)
Description: as §1, §2, §3, §4

CGK2 = CGK2 (Homo sapiens, UniProt Q13237)
Description: as §1, §2, §3, §4

HIPK1 = HIPK1 (Homo sapiens, UniProt Q86Z02)
Description: as §1, §2, §3

EML4-ALK = EML4-ALK (Homo sapiens, UniProt Q9UM73)
Description: as §1, §2, §3, §4

PKACα = PKACα (Homo sapiens, UniProt P17612)
Description: as §1, §2, §3, §4

ALK(L1196M) = ALK(L1196M) (Homo sapiens, UniProt Q9UM73, L1196M)
Description: as §1, §2, §3, §4

HER4 = HER4 (Homo sapiens, UniProt Q15303)
HER4, sequence (Q15303 26-1308): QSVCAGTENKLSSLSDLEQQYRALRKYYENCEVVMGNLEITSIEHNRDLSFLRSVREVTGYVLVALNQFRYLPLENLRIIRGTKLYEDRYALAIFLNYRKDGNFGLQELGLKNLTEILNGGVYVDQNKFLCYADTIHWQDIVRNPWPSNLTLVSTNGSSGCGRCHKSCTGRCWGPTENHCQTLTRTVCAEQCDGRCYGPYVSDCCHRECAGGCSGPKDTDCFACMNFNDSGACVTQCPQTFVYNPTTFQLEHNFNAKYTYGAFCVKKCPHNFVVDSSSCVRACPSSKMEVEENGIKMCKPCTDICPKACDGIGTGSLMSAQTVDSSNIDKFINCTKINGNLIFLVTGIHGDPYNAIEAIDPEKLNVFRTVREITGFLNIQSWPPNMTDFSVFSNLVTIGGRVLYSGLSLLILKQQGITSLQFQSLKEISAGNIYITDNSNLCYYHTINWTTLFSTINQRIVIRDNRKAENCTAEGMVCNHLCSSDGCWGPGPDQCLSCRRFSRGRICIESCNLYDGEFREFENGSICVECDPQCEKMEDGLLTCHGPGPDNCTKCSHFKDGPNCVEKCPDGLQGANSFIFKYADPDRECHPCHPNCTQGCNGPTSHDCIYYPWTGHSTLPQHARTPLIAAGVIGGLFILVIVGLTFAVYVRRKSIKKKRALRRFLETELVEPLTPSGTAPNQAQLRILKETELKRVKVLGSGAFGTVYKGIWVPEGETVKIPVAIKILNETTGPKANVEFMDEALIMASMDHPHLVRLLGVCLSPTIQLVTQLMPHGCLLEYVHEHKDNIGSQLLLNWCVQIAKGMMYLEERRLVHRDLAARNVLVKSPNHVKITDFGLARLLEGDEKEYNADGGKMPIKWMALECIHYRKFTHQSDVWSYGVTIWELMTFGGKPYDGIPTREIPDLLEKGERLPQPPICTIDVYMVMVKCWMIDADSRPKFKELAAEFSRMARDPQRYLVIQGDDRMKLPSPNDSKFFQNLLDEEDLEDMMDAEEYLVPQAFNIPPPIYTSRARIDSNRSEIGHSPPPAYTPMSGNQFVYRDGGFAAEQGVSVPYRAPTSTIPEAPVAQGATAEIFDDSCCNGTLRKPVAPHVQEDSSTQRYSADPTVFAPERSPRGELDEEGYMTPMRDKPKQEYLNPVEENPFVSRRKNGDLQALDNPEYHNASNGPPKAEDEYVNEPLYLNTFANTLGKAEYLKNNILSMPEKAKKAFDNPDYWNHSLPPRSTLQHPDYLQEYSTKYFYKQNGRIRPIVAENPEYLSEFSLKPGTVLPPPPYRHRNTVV
Description: as §1, §2, §3

EPHB3 = EPHB3 (Homo sapiens, UniProt P54753)
EPHB3, sequence (P54753 34-998): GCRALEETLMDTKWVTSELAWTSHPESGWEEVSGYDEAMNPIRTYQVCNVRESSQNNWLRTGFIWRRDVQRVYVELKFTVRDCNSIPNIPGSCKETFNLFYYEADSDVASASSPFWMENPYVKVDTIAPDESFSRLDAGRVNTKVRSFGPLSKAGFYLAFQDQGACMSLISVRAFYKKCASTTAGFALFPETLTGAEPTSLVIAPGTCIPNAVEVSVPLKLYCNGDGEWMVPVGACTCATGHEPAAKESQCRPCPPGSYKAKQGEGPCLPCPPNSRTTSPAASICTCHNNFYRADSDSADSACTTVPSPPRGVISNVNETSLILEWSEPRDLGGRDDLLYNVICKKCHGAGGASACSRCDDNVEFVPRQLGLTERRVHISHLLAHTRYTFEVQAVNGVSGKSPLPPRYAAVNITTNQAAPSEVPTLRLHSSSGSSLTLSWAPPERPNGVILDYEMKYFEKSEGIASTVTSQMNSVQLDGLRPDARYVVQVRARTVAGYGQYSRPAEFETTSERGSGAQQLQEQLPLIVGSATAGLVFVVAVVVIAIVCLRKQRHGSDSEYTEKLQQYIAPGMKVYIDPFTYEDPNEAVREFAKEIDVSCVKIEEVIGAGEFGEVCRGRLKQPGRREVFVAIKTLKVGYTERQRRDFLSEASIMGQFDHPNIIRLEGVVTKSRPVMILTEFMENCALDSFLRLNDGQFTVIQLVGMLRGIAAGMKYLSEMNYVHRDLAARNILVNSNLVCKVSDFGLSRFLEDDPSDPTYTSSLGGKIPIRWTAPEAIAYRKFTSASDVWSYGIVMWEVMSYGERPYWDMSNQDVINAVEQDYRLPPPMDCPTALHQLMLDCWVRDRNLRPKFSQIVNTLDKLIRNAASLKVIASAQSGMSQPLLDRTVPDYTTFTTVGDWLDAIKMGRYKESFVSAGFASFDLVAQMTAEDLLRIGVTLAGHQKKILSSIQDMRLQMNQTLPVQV
Description: as §1, §2, §3, §4

AurC = AurC (Homo sapiens, UniProt Q9UQB9)
AurC, sequence (Q9UQB9 whole entry): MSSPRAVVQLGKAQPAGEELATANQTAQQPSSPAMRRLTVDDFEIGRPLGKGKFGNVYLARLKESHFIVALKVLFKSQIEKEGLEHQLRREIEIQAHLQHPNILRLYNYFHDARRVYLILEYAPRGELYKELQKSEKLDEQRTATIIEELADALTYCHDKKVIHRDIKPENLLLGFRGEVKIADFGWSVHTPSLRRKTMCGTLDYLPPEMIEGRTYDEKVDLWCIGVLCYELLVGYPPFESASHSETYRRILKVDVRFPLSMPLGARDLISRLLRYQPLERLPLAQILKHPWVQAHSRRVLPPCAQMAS
Description: as §1, §2, §3

AKT3 = AKT3 (Homo sapiens, UniProt Q9Y243)
Description: as §1, §2, §3, §4

DAPK1 = DAPK1 (Homo sapiens, UniProt P53355)
Description: as §1, §2, §3, §4

TSSK2 = TSSK2 (Homo sapiens, UniProt Q96PF2)
TSSK2, sequence (Q96PF2 whole entry): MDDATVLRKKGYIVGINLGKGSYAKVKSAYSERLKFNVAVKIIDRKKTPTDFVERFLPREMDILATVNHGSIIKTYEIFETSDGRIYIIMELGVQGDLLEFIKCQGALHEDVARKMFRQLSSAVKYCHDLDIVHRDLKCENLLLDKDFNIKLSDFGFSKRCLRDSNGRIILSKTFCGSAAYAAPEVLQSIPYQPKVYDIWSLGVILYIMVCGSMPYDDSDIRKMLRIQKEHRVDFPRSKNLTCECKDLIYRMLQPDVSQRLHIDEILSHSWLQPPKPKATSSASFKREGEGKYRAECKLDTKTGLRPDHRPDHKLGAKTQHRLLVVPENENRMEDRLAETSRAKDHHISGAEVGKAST
Description: as §1, §2, §3

PLK2, sequence (Q9NYY3 whole entry): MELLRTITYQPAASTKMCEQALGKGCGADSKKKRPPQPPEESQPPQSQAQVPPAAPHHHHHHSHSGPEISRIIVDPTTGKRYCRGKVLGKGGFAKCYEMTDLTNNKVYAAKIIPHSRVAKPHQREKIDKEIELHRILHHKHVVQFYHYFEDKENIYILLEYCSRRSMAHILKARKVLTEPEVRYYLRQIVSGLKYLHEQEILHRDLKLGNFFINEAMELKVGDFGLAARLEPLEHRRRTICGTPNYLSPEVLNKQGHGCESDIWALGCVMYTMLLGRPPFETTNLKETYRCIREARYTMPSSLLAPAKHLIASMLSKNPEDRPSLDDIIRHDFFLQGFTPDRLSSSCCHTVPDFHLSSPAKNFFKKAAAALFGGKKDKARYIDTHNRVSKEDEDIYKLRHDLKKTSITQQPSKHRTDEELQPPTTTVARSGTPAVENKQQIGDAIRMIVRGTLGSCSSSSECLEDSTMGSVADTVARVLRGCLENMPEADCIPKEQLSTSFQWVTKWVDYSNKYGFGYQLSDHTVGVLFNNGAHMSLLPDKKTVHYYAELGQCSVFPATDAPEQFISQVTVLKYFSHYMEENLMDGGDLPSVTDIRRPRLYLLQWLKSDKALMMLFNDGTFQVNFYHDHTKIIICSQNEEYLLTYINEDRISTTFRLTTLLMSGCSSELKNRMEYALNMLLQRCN

CC[C@@]1(c2ccccc2)C2=C(CC(C)(C)CC2=O)Nc2n[nH]cc21 [BRD0705]
% Inhibition at 10 μM (CHK2): −3.6% | % Inhibition at 10 μM (PLK2): 4.0% | % Inhibition at 10 μM (MST2): −3.4% | % Inhibition at 10 μM (PHKG2): −5.8% | % Inhibition at 10 μM (QIK): −6.4% | % Inhibition at 10 μM (MARK2): −6.2% | % Inhibition at 10 μM (FGFR4): −13.4% | % Inhibition at 10 μM (EPHA1): −2.3% | % Inhibition at 10 μM (NEK9): 3.5% | % Inhibition at 10 μM (SPHK1): −20.5% | % Inhibition at 10 μM (YES): 7.9% | % Inhibition at 10 μM (PKACγ): −3.6% | % Inhibition at 10 μM (PASK): 0.2% | % Inhibition at 10 μM (p70S6K): −7.8% | % Inhibition at 10 μM (MAP2K7_Cascade): −0.6% | % Inhibition at 10 μM (MST1): −7.3% | % Inhibition at 10 μM (IRR): 4.0% | % Inhibition at 10 μM (MAPKAPK5): −1.0% | % Inhibition at 10 μM (EGFR(d746-750/T790M)): −3.5% | % Inhibition at 10 μM (MLK2_Cascade): 2.1% | % Inhibition at 10 μM (CLK3): −1.5% | % Inhibition at 10 μM (HIPK3): −7.6% | % Inhibition at 10 μM (MAP3K1_Cascade): 1.8% | % Inhibition at 10 μM (LYNb): 2.2% | % Inhibition at 10 μM (CLK1): −7.1% | % Inhibition at 10 μM (ALK): 1.1% | % Inhibition at 10 μM (SGK2): 0.8% | % Inhibition at 10 μM (Haspin): −5.1% | % Inhibition at 10 μM (MNK2): −5.9% | % Inhibition at 10 μM (BRAF_Cascade): 7.8% | % Inhibition at 10 μM (CGK2): −7.3% | % Inhibition at 10 μM (HIPK1): −6.5% | % Inhibition at 10 μM (EML4-ALK): 3.4% | % Inhibition at 10 μM (PKACα): 3.4% | % Inhibition at 10 μM (ALK(L1196M)): 0.4% | % Inhibition at 10 μM (HER4): 1.3% | % Inhibition at 10 μM (EPHB3): −1.3% | % Inhibition at 10 μM (AurC): 7.3% | % Inhibition at 10 μM (AKT3): −8.3% | % Inhibition at 10 μM (DAPK1): −6.0% | % Inhibition at 10 μM (TSSK2): −3.4%

CC(C)(C)Cc1[nH]nc2c1[C@](C)(c1ccccc1)C1=C(CC(C)(C)CC1=O)N2 [BRD3731]
% Inhibition 10 μM (CHK2; 10 μM): 1.5% | % Inhibition 10 μM (PLK2; 10 μM): 8.5% | % Inhibition 10 μM (MST2; 10 μM): 1.5% | % Inhibition 10 μM (PHKG2; 10 μM): 6.0% | % Inhibition 10 μM (QIK; 10 μM): −4.1% | % Inhibition 10 μM (MARK2; 10 μM): 16.5% | % Inhibition 10 μM (FGFR4; 10 μM): −8.1% | % Inhibition 10 μM (EPHA1; 10 μM): 2.1% | % Inhibition 10 μM (NEK9; 10 μM): 2.9% | % Inhibition 10 μM (SPHK1; 10 μM): 3.4% | % Inhibition 10 μM (YES; 10 μM): 1.6% | % Inhibition 10 μM (PKACγ; 10 μM): 6.5% | % Inhibition 10 μM (PASK; 10 μM): 10.7% | % Inhibition 10 μM (p70S6K; 10 μM): 12.5% | % Inhibition 10 μM (MAP2K7_Cascade; 10 μM): 3.0% | % Inhibition 10 μM (MST1; 10 μM): 3.9% | % Inhibition 10 μM (IRR; 10 μM): 6.2% | % Inhibition 10 μM (MAPKAPK5; 10 μM): 6.1% | % Inhibition 10 μM (EGFR(d746-750/T790M); 10 μM): 3.7% | % Inhibition 10 μM (MLK2_Cascade; 10 μM): 0.3% | % Inhibition 10 μM (CLK3; 10 μM): 4.0% | % Inhibition 10 μM (HIPK3; 10 μM): 3.2% | % Inhibition 10 μM (MAP3K1_Cascade; 10 μM): 4.0% | % Inhibition 10 μM (LYNb; 10 μM): 2.9% | % Inhibition 10 μM (CLK1; 10 μM): 3.1% | % Inhibition 10 μM (ALK; 10 μM): 3.0% | % Inhibition 10 μM (SGK2; 10 μM): 10.4% | % Inhibition 10 μM (Haspin; 10 μM): 5.3% | % Inhibition 10 μM (MNK2; 10 μM): −5.6% | % Inhibition 10 μM (BRAF_Cascade; 10 μM): 8.9% | % Inhibition 10 μM (CGK2; 10 μM): 4.4% | % Inhibition 10 μM (HIPK1; 10 μM): 5.8% | % Inhibition 10 μM (EML4-ALK; 10 μM): −7.2% | % Inhibition 10 μM (PKACα; 10 μM): 17.1% | % Inhibition 10 μM (ALK(L1196M); 10 μM): 3.6% | % Inhibition 10 μM (HER4; 10 μM): 6.5% | % Inhibition 10 μM (EPHB3; 10 μM): 0.1% | % Inhibition 10 μM (AurC; 10 μM): 4.9% | % Inhibition 10 μM (AKT3; 10 μM): −6.4% | % Inhibition 10 μM (DAPK1; 10 μM): −3.4% | % Inhibition 10 μM (TSSK2; 10 μM): 3.8%
